This note sets out measurements from PubChem BioAssay (NCI).

Some test systems named below: SK-MEL-28 melanoma; TK-10 renal; SK-MEL-2 melanoma; UACC-62 melanoma; K-562 leukemia.
Common to all, as to experiment: growth of human tumour cells (NCI), 48 h

The structures appear in SMILES notation. “And” between values parts separate entries of the source, which are not always exact repeats. Equal values may be shown once.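 Protocol summary: plate cells (96-well), add compound at 5 concentrations, incubate 48 h, interpolate endpoints linearly. At the GI50, growth is halved. The concentration for full growth arrest is given as TGI.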

In the case of `CCOC(=O)c1c(NC(=O)c2cccc(C(F)(F)F)c2)sc2c(CN(C)C)c(O)ccc12`, the GI50 is 1.76 µM with SK-MEL-28 melanoma; 4.25 µM with TK-10 renal; 2.57 µM in the experiment with SK-MEL-2 melanoma; 1.71 µM with UACC-62 melanoma; 1.83 µM with K-562 leukemia. Besides, the TGI is 3.21 µM with SK-MEL-28 melanoma; 15.8 µM with TK-10 renal; 6.92 µM in the experiment with SK-MEL-2 melanoma; 3.17 µM in the experiment with UACC-62 melanoma; 4.76 µM with K-562 leukemia.

As to `N=C(N)c1ccc2nc(-c3cc(CC(=O)N[C@@H](CC(=O)O)C(=O)O)cc(-c4cc(S(N)(=O)=O)ccc4O)c3O)[nH]c2c1`, the GI50 in the experiment with SK-MEL-28 melanoma, in the experiment with TK-10 renal, in the experiment with SK-MEL-2 melanoma, in the experiment on UACC-62 melanoma and in the experiment on K-562 leukemia was greater than 100 µM throughout. For the same compound, the TGI in the experiment with SK-MEL-28 melanoma, in the experiment with TK-10 renal, in the experiment with SK-MEL-2 melanoma, in the experiment on UACC-62 melanoma and in the experiment with K-562 leukemia was greater than 100 µM throughout.

For the compound `Cc1nc2sc3c(c2c(=O)[nH]1)CCCC3`, the TGI with SK-MEL-28 melanoma, in the experiment with TK-10 renal, with SK-MEL-2 melanoma, with UACC-62 melanoma and in the experiment with K-562 leukemia was greater than 100 µM throughout.

As for `COc1cc(OC)c(/C=C/c2c3ccccc3cc[n+]2C)c(OC)c1`, the GI50 is 2.34 µM with SK-MEL-28 melanoma; 3.27 µM in the experiment on TK-10 renal; 2.64 µM with SK-MEL-2 melanoma; 1.51 µM in the experiment on UACC-62 melanoma; 0.863 µM in the experiment with K-562 leukemia. The TGI in the experiment on SK-MEL-28 melanoma is 13.2 µM; in the experiment on TK-10 renal, 23.1 µM; in the experiment with SK-MEL-2 melanoma it was 6.3 µM; in the experiment on UACC-62 melanoma, 9.58 µM; in the experiment with K-562 leukemia it was greater than 100 µM.

For `O=C(Nc1ccc(-n2ccc3c(NC(=O)c4ccccc4)nccc32)cc1)Nc1ccc(Cl)c(Cl)c1`, the GI50 with SK-MEL-28 melanoma was 1.49 µM; with TK-10 renal it was 1.82 µM; with SK-MEL-2 melanoma, 1.98 µM; in the experiment with UACC-62 melanoma, 1.23 µM; with K-562 leukemia it was 0.736 µM. Besides, the TGI was 3.07 µM in the experiment with SK-MEL-28 melanoma; 5.29 µM in the experiment on TK-10 renal; 4.87 µM in the experiment with SK-MEL-2 melanoma; 2.83 µM in the experiment with UACC-62 melanoma; greater than 100 µM in the experiment on K-562 leukemia.

Turning to `Cc1cc(C)c(NC(=O)c2sc3nc4c(cc3c2N)CN(Cc2ccccc2)CC4)c(C)c1`, the GI50 in the experiment on SK-MEL-28 melanoma is 6.97 µM; in the experiment with TK-10 renal, 5.06 µM; with SK-MEL-2 melanoma it was 5.59 µM; in the experiment on UACC-62 melanoma, 3.9 µM; with K-562 leukemia, 0.903 µM. For the same compound, the TGI in the experiment on SK-MEL-28 melanoma was 40.4 µM; in the experiment with TK-10 renal, greater than 100 µM; in the experiment on SK-MEL-2 melanoma it was greater than 100 µM; in the experiment on UACC-62 melanoma, 42.4 µM; in the experiment with K-562 leukemia it was greater than 100 µM.

For `O=C(Nc1ccc(F)cc1)c1cc(S(=O)(=O)Nc2nc3ccccc3o2)c(SCc2ccccc2)cc1Cl`, the GI50 in the experiment on SK-MEL-28 melanoma is 25.8 µM; in the experiment with TK-10 renal, 16.4 µM; in the experiment with UACC-62 melanoma it was 14.4 µM; with K-562 leukemia, 24.7 µM. Moreover, the TGI was 58.2 µM with SK-MEL-28 melanoma, 31.5 µM with TK-10 renal, 27.6 µM in the experiment with UACC-62 melanoma and 99.6 µM in the experiment with K-562 leukemia.

Regarding `CCN1C(=O)N(CC)C2C1NN=c1s/c(=C3\C(=O)N(CC(C)(C)C)c4ccccc43)c(=O)n12` (stereo not drawn), the GI50 with SK-MEL-28 melanoma is 6.94 µM; with TK-10 renal, 15.3 µM; in the experiment with SK-MEL-2 melanoma, 11.3 µM; with UACC-62 melanoma, 3.06 µM; with K-562 leukemia it was 1.65 µM. Moreover, the TGI in the experiment on SK-MEL-28 melanoma came to 22 µM; in the experiment with TK-10 renal, 48.5 µM; in the experiment with SK-MEL-2 melanoma, 33.1 µM; in the experiment on UACC-62 melanoma it was 15.8 µM; in the experiment on K-562 leukemia, 20.9 µM.

Regarding `O=CN1CCN(CC(O)CN2CCCCC2)CC1` (stereo not drawn), the TGI in the experiment with SK-MEL-28 melanoma, in the experiment with TK-10 renal, in the experiment with SK-MEL-2 melanoma, in the experiment with UACC-62 melanoma and in the experiment on K-562 leukemia was greater than 100 µM throughout.

Regarding `COC(=O)[C@@H](C)C[C@H](Cc1ccccc1)NC(=O)c1csc([C@@H](C[C@H](C(C)C)N(C)C(=O)[C@@H](NC(=O)[C@H]2CCCCN2C)C2CCCCC2)OC(C)=O)n1`, the GI50 in the experiment on TK-10 renal was 0.0181 µM and 0.0025 µM; in the experiment with UACC-62 melanoma it was 0.000354 µM and 0.0025 µM; in the experiment with K-562 leukemia, 0.000374 µM and 0.0025 µM. Moreover, the TGI was greater than 25 µM in the experiment on TK-10 renal, greater than 25 µM in the experiment on UACC-62 melanoma and 4.33 µM in the experiment on K-562 leukemia.

For `NC(=O)c1cc(S(=O)(=O)Nc2nnc(-c3ccccc3)c(-c3ccccc3)n2)c(SCc2ccccc2)cc1Cl`, the TGI in the experiment on SK-MEL-28 melanoma is greater than 100 µM; with TK-10 renal, greater than 100 µM; in the experiment on SK-MEL-2 melanoma, greater than 60.7 µM; in the experiment on UACC-62 melanoma, greater than 100 µM; in the experiment on K-562 leukemia, greater than 100 µM. In addition, the GI50 in the experiment on TK-10 renal was greater than 100 µM; with SK-MEL-2 melanoma, greater than 43.1 µM; with UACC-62 melanoma it was 71.1 µM; in the experiment with K-562 leukemia it was 54.6 µM.

Turning to `COCC1(CO)C(=O)C2CCN1CC2` (stereo not drawn), the GI50 with SK-MEL-28 melanoma was 14.5 µM; with TK-10 renal it was 16.8 µM; in the experiment with SK-MEL-2 melanoma, 20.6 µM; in the experiment on UACC-62 melanoma, 23 µM; with K-562 leukemia, 19.9 µM. The TGI was 28.6 µM with SK-MEL-28 melanoma; 31.1 µM in the experiment on TK-10 renal; 46.5 µM with SK-MEL-2 melanoma; greater than 56.1 µM in the experiment on UACC-62 melanoma; 58.5 µM with K-562 leukemia.

With `O[C@H](c1cc(C(F)(F)F)nc2c(C(F)(F)F)cccc12)[C@@H]1CCCCN1`, the GI50 in the experiment with SK-MEL-28 melanoma is 2.29 µM; in the experiment with TK-10 renal, 2.85 µM; in the experiment with SK-MEL-2 melanoma, 3.26 µM; in the experiment with UACC-62 melanoma it was 5.9 µM; in the experiment on K-562 leukemia, 2.87 µM. Besides, the TGI with SK-MEL-28 melanoma turned out to be 5.63 µM; in the experiment with TK-10 renal, 10.4 µM; with SK-MEL-2 melanoma, 11.9 µM; in the experiment on UACC-62 melanoma, 17.5 µM; with K-562 leukemia, 9.17 µM.

For the compound `CCOc1ccncc1[N+](=O)[O-]`, the TGI in the experiment with SK-MEL-28 melanoma, with TK-10 renal, in the experiment on SK-MEL-2 melanoma, in the experiment with UACC-62 melanoma and in the experiment on K-562 leukemia was greater than 100 µM each time.

As for `CSc1ccc2c(c1)C(=O)c1c-2n(CCCBr)c(=O)c2cc([N+](=O)[O-])ccc12`, the GI50 was 51.8 µM in the experiment on SK-MEL-28 melanoma; greater than 100 µM with TK-10 renal; greater than 100 µM in the experiment with SK-MEL-2 melanoma; 3.1 µM in the experiment with UACC-62 melanoma; 3.94 µM in the experiment with K-562 leukemia. Further, the TGI is greater than 100 µM in the experiment with SK-MEL-28 melanoma; greater than 100 µM in the experiment with TK-10 renal; greater than 100 µM in the experiment with SK-MEL-2 melanoma; greater than 100 µM with UACC-62 melanoma; 19.3 µM with K-562 leukemia.
